Where two headings read alike, the source gives them in different places.
How the values were obtained:
Assay in all cases: KINOMEscan ScanTK
Type in all cases: binding
TIE1 = biological target: T1, TIE1 (Homo sapiens, UniProt P35590)
T1 construct: purchased Eurofins DiscoverX KINOMEscan (scanTK)

RET(M918T) = biological target: T2, RET(M918T) (Homo sapiens, UniProt P07949, M918T)
T2 construct: purchased Eurofins DiscoverX KINOMEscan (scanTK)

EPHB3 = biological target: T3, EPHB3 (Homo sapiens, UniProt P54753)
T3 construct: purchased Eurofins DiscoverX KINOMEscan (scanTK)
T3 sequence (P54753 34-998): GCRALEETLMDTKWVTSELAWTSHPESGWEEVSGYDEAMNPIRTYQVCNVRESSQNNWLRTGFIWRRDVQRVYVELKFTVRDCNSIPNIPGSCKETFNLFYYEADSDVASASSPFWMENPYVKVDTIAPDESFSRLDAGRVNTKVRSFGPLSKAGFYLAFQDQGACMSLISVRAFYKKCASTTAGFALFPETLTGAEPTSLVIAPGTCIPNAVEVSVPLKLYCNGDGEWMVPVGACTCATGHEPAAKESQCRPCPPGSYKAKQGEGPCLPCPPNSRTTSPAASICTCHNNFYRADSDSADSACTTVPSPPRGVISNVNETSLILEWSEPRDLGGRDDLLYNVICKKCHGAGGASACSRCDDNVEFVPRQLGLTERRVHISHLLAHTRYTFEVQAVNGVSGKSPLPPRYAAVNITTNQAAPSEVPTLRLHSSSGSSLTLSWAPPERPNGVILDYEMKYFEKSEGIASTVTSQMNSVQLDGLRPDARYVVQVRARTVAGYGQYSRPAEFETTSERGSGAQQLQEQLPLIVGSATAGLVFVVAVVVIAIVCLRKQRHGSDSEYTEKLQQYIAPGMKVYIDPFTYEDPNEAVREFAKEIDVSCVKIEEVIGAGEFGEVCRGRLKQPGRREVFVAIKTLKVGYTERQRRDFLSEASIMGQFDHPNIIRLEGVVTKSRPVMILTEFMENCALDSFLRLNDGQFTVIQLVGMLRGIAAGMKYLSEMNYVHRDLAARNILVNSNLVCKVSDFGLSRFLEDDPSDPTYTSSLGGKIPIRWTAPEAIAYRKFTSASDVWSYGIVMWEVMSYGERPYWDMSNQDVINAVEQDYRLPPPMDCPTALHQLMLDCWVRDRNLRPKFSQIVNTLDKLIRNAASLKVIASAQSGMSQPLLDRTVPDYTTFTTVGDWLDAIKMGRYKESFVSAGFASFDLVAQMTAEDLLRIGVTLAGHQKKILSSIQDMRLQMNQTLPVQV

CSK = biological target: T4, CSK (Homo sapiens, UniProt P41240)
T4 construct: purchased Eurofins DiscoverX KINOMEscan (scanTK)

[1] = biological target: T5, ABL1(F317I)-nonphosphorylated (Homo sapiens, UniProt P00519, F317I)
T5 construct: purchased Eurofins DiscoverX KINOMEscan (scanTK)

ZAP70 = biological target: T6, ZAP70 (Homo sapiens, UniProt P43403)
T6 construct: purchased Eurofins DiscoverX KINOMEscan (scanTK)
T6 sequence (P43403 1-619): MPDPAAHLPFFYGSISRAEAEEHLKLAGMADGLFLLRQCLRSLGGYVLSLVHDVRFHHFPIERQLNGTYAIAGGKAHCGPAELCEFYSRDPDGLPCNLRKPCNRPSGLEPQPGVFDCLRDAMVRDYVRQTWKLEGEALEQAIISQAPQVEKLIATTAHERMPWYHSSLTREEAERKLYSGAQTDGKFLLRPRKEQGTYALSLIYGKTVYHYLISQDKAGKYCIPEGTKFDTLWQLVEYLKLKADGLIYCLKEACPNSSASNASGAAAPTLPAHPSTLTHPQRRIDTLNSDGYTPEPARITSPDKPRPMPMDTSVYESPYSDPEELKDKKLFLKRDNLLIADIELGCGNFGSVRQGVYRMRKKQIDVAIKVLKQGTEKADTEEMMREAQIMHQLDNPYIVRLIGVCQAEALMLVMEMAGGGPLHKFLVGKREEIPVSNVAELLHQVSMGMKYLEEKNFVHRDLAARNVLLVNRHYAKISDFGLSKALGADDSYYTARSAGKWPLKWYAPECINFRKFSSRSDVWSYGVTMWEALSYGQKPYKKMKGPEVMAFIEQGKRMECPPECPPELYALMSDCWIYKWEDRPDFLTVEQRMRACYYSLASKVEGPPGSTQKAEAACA

ITK = biological target: T7, ITK (Homo sapiens, UniProt Q08881)
T7 construct: purchased Eurofins DiscoverX KINOMEscan (scanTK)
T7 sequence (Q08881 1-620): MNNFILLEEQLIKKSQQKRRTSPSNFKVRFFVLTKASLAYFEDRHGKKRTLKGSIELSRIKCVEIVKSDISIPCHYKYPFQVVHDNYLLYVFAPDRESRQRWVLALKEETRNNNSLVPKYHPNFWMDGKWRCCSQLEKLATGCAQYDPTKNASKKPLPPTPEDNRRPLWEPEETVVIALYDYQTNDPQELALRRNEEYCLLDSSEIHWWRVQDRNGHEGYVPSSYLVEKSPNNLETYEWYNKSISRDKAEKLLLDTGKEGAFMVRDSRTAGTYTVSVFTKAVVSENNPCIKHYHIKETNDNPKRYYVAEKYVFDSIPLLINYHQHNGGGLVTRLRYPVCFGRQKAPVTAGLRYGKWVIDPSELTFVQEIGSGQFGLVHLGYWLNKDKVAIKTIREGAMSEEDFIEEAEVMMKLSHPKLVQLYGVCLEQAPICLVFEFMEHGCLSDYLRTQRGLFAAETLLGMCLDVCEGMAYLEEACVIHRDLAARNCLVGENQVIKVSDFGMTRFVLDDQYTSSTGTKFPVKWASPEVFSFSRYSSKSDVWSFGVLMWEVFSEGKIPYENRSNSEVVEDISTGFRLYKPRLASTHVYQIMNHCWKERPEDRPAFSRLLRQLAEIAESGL

EGFR(L861Q) = biological target: T8, EGFR(L861Q) (Homo sapiens, UniProt P00533, L861Q)
T8 construct: purchased Eurofins DiscoverX KINOMEscan (scanTK)

[2] = biological target: T9, TYK2(JH2domain-pseudokinase) (Homo sapiens, UniProt P29597)
T9 construct: TYK2(JH2domain-pseudokinase); purchased Eurofins DiscoverX KINOMEscan (scanTK)
T9 sequence (P29597 575-869 limits assumed): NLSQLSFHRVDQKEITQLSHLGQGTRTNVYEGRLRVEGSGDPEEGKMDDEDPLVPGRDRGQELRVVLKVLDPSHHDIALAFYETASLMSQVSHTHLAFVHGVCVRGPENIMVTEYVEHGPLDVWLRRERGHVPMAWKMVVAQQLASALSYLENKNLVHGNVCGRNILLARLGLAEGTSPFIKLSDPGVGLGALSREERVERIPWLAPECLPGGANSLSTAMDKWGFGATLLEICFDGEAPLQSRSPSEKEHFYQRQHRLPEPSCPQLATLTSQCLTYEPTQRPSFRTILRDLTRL

T5 sequence (P00519 whole entry F317I): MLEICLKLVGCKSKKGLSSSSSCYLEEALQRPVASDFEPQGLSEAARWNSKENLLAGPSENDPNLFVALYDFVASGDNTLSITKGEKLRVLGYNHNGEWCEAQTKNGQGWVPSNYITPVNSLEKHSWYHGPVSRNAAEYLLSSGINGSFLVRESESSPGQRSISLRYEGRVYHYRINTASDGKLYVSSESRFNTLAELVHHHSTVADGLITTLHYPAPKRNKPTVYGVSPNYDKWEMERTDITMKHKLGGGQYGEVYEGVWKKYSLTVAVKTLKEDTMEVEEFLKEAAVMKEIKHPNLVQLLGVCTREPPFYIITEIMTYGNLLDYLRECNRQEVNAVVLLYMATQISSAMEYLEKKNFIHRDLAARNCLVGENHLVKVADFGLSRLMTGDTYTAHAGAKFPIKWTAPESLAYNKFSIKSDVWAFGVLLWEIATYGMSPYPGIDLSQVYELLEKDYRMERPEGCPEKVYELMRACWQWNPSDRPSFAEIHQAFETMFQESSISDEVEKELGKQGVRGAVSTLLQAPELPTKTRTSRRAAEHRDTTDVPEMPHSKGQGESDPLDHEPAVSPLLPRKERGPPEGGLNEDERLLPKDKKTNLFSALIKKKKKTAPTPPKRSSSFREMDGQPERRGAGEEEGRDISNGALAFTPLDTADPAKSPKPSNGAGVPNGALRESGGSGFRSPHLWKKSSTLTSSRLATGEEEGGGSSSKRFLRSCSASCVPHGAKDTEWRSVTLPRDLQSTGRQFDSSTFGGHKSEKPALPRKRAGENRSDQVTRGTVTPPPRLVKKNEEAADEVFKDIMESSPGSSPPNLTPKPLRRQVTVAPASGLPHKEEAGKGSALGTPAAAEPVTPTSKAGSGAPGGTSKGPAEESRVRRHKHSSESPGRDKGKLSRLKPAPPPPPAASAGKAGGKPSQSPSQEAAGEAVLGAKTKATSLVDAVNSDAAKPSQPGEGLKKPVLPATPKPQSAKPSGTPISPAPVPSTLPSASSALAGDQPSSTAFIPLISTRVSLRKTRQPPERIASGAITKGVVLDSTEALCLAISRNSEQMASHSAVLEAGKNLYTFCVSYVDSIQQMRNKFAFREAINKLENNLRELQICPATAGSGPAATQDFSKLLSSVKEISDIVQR
T4 sequence (P41240 whole entry): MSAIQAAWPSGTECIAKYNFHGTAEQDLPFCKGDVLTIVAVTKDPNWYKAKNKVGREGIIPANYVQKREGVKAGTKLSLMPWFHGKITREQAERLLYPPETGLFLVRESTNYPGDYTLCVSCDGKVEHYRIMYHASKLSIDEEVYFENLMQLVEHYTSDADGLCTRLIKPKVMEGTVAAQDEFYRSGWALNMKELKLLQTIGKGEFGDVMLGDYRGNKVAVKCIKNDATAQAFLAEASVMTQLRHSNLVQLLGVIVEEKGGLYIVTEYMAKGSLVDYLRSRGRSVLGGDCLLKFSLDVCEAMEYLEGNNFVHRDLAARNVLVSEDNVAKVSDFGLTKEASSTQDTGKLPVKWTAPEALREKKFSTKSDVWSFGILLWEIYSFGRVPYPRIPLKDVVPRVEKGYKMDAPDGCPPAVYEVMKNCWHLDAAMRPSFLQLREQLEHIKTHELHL
T8 sequence (P00533 25-1210 L861Q): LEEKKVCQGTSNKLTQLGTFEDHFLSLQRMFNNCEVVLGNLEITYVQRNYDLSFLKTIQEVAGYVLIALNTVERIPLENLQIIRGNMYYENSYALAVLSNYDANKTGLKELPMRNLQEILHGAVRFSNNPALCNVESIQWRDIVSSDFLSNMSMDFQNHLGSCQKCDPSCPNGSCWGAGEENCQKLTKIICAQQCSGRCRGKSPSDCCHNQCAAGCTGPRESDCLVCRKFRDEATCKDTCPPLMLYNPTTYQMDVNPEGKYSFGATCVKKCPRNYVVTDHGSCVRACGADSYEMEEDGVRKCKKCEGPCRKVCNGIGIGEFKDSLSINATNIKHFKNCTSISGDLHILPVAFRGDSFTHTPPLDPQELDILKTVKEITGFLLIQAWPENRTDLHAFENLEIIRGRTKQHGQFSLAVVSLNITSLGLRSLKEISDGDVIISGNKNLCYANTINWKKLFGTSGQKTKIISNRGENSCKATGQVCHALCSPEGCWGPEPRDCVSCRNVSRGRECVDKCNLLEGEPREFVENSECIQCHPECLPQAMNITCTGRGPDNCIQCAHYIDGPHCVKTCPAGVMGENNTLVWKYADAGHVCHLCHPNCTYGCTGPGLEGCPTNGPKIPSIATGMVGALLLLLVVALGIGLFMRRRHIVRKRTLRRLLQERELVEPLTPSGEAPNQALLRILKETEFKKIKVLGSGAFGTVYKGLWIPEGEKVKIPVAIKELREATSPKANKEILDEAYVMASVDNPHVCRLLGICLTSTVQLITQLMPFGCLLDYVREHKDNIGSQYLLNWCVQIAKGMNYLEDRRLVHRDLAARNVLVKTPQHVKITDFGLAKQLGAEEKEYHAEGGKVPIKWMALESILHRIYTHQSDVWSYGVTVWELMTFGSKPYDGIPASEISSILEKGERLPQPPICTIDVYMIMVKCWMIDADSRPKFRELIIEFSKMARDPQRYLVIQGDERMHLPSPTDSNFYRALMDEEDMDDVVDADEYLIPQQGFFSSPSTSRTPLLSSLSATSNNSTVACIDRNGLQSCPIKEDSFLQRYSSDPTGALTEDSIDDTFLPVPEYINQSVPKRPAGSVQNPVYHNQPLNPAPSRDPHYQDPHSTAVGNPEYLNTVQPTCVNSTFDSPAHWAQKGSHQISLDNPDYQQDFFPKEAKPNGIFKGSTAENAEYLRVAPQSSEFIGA
T2 sequence (P07949 29-1114 M918T): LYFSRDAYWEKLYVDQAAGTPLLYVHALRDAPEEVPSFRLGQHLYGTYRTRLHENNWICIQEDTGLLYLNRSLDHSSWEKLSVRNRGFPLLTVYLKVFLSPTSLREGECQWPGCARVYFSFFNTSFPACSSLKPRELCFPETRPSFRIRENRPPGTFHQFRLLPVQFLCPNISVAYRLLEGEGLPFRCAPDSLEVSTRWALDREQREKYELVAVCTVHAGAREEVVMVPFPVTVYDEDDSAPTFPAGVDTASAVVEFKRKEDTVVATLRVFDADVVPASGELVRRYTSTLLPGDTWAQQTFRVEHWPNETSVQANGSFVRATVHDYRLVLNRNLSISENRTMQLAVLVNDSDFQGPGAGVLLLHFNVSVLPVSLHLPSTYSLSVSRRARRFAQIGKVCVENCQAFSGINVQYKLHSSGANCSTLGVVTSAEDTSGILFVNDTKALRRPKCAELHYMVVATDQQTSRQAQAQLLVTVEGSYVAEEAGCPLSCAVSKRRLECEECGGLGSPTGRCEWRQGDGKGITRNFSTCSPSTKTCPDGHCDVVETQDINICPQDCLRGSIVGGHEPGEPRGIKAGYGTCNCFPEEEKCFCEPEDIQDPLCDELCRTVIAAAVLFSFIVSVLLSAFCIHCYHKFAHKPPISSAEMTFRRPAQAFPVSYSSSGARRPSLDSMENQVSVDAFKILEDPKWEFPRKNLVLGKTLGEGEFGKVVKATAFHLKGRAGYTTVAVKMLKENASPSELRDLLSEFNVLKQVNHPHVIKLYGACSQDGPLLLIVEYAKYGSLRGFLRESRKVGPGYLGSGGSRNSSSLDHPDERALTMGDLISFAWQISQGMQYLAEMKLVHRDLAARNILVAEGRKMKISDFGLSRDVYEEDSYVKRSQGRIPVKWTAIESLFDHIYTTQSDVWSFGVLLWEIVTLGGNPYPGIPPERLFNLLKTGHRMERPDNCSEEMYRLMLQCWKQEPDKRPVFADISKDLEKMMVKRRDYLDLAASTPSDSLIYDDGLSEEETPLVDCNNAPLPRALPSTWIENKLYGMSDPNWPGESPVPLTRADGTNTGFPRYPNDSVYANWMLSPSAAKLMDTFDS

In the case of `CNC(=O)c1cnc(S(C)(=O)=O)nc1N1CCCC(n2nc(-c3ccc(Oc4ccccc4)cc3)c3c(N)ncnc32)C1` (stereo not shown) [Compound 8d, 4-(3-(4-Amino-3-(4-phenoxyphenyl)-1H-pyrazolo[3,4-d]pyrimidin-1-yl)piperidin-1-yl)-N-methyl-2-(methylsulfonyl)pyrimidine-5-carboxamide], the remaining binding at 1 µM (TIE1; @1000nM, read-out: %Control) is reported as 69%, the remaining binding at 1 µM (TIE1; read-out: %Control @1000nM) is reported as 69% and the remaining binding at 1 µM (RET(M918T); @1000nM, read-out: %Control) is reported as 32%. The remaining binding at 1 µM (RET(M918T); read-out: %Control @1000nM) was 32%, the difference in %Control versus compound Ib at 1 µM (EPHB3; @1000nM) was 2% and the remaining binding at 1 µM (EPHB3; @1000nM, read-out: %Control) was 100%. For the same compound, the remaining binding at 1 µM (EPHB3; read-out: %Control @1000nM) was 100%, the difference in %Control from reference compound Ib at 1 µM (CSK; @1000nM) was 3.6% and the remaining binding at 1 µM (CSK; @1000nM, read-out: %Control) was 8.1%. For the same compound, the remaining binding at 1 µM (CSK; read-out: %Control @1000nM) was 8.1%, the difference in %Control versus compound Ib at 1 µM ([1]; @1000nM) was 33% and the remaining binding at 1 µM ([1]; @1000nM, read-out: %Control) was 85%. The remaining binding at 1 µM ([1]; read-out: %Control @1000nM) was 85%, the remaining binding at 1 µM (ZAP70; @1000nM, read-out: %Control) was 100% and the remaining binding at 1 µM (ZAP70; read-out: %Control @1000nM) was 100%. The difference in %Control versus compound Ib at 1 µM (ITK; @1000nM, ITK) was 66%, the remaining binding at 1 µM (ITK; @1000nM, ITK, read-out: %Control) was 81% and the remaining binding at 1 µM (ITK; ITK, read-out: %Control @1000nM) was 81%. The inhibition at 1 µM (ITK; ScanTK, 1 μM) was 19%, the difference in % of control versus compound Ib at 1 µM (EGFR(L861Q); @1000nM) was 28.2% and the remaining binding at 1 µM (EGFR(L861Q); @1000nM, read-out: %Control) was 29%. The remaining binding at 1 µM (EGFR(L861Q); read-out: %Control @1000nM) was 29%, the difference in %Control versus Ib at 1 µM ([2]; @1000nM, read-out: % difference (compound - Ib %Control)) was 8% and the remaining binding at 1 µM ([2]; @1000nM, read-out: %Control) was 96%. For the same compound, the remaining binding at 1 µM ([2]; read-out: %Control @1000nM) was 96%.
